Columns and labels:
Protein AF-9 = target: T1, Protein AF-9 (Homo sapiens, UniProt P42568); test: Inhibition of N-terminal nanoLuc-tagged YEATS3 in HEK293T cells co-transfected with C-terminal halo-tagged histone 3.3 incubated for 24 hrs in presence of SAHA by NanoBRET assay; assay type: cell-based
T1 sequence (P42568 whole entry): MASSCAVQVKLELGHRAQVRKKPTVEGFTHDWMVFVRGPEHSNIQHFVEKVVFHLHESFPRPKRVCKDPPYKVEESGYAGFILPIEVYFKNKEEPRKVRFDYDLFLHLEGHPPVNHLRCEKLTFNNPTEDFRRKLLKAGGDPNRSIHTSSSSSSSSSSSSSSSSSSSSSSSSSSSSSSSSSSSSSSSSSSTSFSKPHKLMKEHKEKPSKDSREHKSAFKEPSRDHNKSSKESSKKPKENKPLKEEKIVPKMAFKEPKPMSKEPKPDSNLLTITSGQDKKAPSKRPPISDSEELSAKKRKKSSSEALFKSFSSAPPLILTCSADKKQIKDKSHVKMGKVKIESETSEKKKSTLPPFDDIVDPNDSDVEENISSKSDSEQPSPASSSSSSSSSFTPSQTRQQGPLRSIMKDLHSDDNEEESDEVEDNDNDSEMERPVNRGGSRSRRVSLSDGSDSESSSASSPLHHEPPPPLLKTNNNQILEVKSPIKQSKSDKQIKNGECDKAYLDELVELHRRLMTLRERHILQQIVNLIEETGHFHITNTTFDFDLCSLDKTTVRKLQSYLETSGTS

[1] = target: T2, YEATS domain-containing protein 4 (Homo sapiens, UniProt O95619); test: Binding affinity to human his-tagged recombinant YEATS4 expressed in Escherichia coli assessed as inhibition constant using biotin tagged lysine 27-crotonylated histone H3 peptide as substrate preincubated for 20 mins followed by substrate addition measured after 30 mins by FRET analysis
[2] = Apparent permeability in dog RRCK cells; assay type: ADME, cell-based, Canis lupus familiaris, MDCKII-LE; conditions: MDCK
[3] = Intrinsic clearance in human hepatocytes assessed per million cells; assay type: ADME, cell-based, Hepatocyte; conditions: read-out: CLH
[4] = target: Voltage-gated inwardly rectifying potassium channel KCNH2 (Homo sapiens, UniProt Q12809); test: Inhibition of hERG assessed as inhibition constant by patch-clamp assay; assay type: toxicity
[5] = Cytotoxicity against human THLE cells assessed as inhibition of cell growth by CellTiter-Glo assay; assay type: toxicity, cell-based
Homo sapiens [6] = organism: Homo sapiens; test: Selectivity ratio of Ki for human recombinant YEATS1 to Ki for human recombinant YEATS4
Homo sapiens [7] = organism: Homo sapiens; test: Selectivity ratio of Ki for human recombinant YEATS2 to Ki for human recombinant YEATS4
Homo sapiens [8] = organism: Homo sapiens; test: Selectivity ratio of Ki for human recombinant YEATS3 to Ki for human recombinant YEATS4
[9] = Lipophilicity, logD of the compound by shake flask method; assay type: physicochemical; conditions: octanol/water
[10] = target: T2, YEATS domain-containing protein 4; test: Inhibition of N-terminal nanoLuc-tagged YEATS4 in HEK293T cells co-transfected with C-terminal halo-tagged histone 3.3 incubated for 24 hrs in presence of SAHA by NanoBRET assay; assay type: cell-based
[11] = Cytotoxicity against human Bone marrow cell assessed as reduction in cell viability measured after 7 days; assay type: toxicity, cell-based; conditions: bone marrow cells
[12] = target: T2, YEATS domain-containing protein 4; test: Binding affinity to C-terminal biotin-tagged YEATS4 (unknown origin) by SPR analysis
[13] = target: T2, YEATS domain-containing protein 4; test: Binding affinity to YEATS4 (unknown origin) assessed as dissociation constant by isothermal calorimetric analysis
[14] = target: T2, YEATS domain-containing protein 4; test: Binding affinity to YEATS4 (unknown origin) assessed as change in enthalpy by isothermal calorimetric analysis
[15] = target: T2, YEATS domain-containing protein 4; test: Binding affinity to YEATS4 (unknown origin) assessed as change in entropy by isothermal calorimetric analysis
[16] = Half life in mouse at 100 mg/kg, po; assay type: ADME, organism-based; conditions: in vivo
[17] = Cmax in mouse at 100 mg/kg, po; assay type: ADME, organism-based; design: dose 100 mg/kg, route po; conditions: in vivo
[18] = AUC in mouse at 100 mg/kg, po; assay type: ADME, organism-based; design: dose 100 mg/kg, route po; conditions: in vivo
[19] = Tmax in mouse at 100 mg/kg, po; assay type: ADME, organism-based; conditions: in vivo
[20] = Volume of distribution at steady state in rat at 1 mg/kg, iv; assay type: ADME, organism-based; conditions: in vivo, read-out: Vdss
[21] = Volume of distribution at steady state in mouse at 1 mg/kg, iv; assay type: ADME, organism-based; conditions: in vivo, read-out: Vdss
[22] = Half life in rat at 3 mg/kg, po; assay type: ADME, organism-based; conditions: in vivo
[23] = Half life in mouse at 3 mg/kg, po; assay type: ADME, organism-based; conditions: in vivo
[24] = Cmax in rat at 3 mg/kg, po; assay type: ADME, organism-based; design: dose 3 mg/kg, route po; conditions: in vivo
[25] = Cmax in mouse at 3 mg/kg, po; assay type: ADME, organism-based; design: dose 3 mg/kg, route po; conditions: in vivo
[26] = AUC in rat at 3 mg/kg, po; assay type: ADME, organism-based; design: dose 3 mg/kg, route po; conditions: in vivo
[27] = AUC in mouse at 3 mg/kg, po; assay type: ADME, organism-based; design: dose 3 mg/kg, route po; conditions: in vivo
[28] = Tmax in rat at 3 mg/kg, po; assay type: ADME, organism-based; conditions: in vivo
[29] = Tmax in mouse at 3 mg/kg, po; assay type: ADME, organism-based; conditions: in vivo
[30] = Oral bioavailability in rat at 3 mg/kg; assay type: ADME, organism-based; conditions: in vivo
[31] = Oral bioavailability in mouse at 3 mg/kg; assay type: ADME, organism-based; conditions: in vivo

T2 sequence (O95619 whole entry, the tested form may be a part): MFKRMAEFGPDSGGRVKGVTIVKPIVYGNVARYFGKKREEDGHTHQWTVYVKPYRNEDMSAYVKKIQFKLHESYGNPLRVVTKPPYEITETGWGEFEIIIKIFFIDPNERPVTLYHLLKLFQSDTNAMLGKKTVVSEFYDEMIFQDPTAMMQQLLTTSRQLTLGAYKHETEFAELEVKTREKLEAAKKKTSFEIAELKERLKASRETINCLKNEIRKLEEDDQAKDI
Sequence of Voltage-gated inwardly rectifying potassium channel KCNH2 (Q12809 whole entry): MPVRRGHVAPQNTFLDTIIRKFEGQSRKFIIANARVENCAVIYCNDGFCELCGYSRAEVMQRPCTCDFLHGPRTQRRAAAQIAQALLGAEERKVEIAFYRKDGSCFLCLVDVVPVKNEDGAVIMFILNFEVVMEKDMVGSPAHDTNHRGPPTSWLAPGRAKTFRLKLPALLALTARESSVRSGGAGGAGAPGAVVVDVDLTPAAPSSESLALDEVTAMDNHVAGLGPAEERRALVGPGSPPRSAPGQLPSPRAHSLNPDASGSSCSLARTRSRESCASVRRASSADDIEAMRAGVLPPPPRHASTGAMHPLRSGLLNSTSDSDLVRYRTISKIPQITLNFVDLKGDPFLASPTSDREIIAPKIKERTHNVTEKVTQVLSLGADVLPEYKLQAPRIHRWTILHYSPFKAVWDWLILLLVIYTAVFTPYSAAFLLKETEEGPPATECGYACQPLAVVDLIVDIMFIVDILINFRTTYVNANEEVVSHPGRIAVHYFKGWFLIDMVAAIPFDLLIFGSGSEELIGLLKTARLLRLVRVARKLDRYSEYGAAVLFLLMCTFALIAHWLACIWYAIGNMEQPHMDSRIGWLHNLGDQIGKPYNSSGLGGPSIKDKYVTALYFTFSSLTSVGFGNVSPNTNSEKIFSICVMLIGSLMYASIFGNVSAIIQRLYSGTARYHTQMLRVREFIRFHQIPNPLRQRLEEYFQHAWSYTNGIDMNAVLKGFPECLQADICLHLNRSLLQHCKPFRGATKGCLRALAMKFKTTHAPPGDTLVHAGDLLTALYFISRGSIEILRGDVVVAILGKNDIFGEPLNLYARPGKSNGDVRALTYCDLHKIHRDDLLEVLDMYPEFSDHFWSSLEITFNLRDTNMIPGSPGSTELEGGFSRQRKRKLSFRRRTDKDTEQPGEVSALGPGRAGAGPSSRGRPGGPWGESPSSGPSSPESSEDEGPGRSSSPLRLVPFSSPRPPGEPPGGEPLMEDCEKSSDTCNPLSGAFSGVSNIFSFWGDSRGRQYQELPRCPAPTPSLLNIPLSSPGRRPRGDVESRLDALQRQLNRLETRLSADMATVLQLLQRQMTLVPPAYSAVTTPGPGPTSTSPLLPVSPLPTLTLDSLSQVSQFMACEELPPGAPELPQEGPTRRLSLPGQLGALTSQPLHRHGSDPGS

Compound	Ki [1]	Papp [2]	hepatocyte CLint [3]	Ki [4]	IC50 [5]	Ratio Ki (Homo sapiens [6])	Ratio Ki (Homo sapiens [7])	Ratio Ki (Homo sapiens [8])	logD [9]	IC50 [10]	IC50 at 7 days [11]	Kd [12]	Kd [13]	other results
CCNC(=O)c1ccc2c([C@H]3CCN(CC4(O)CCCCC4)C[C@@H]3C)c(C)nn2c1	0.033 µM	2.6 nm/s	4.1 µL/min/1e6 cells	4.64 µM	> 300 µM	15	10	14	2.5	0.17 µM	> 0.05 µM	0.34 µM	0.0527 µM	IC50 (Protein AF-9): 2.98 µM; deltaH [14]: -63.2 kJ/mol; deltaH [15]: -17.4 cal/mol.K; half-life [16]: 1.2 h; Cmax [17]: 9.14 µg/mL; AUC [18]: 0.412 µg·h/mL; Tmax [19]: 0.5 h
CCNC(=O)c1ccc2c(c1)nc(-c1cccn(C)c1=O)n2[C@H]1CCN(CC2(O)CCCCC2)C[C@@H]1C	0.033 µM	0.04 nm/s	< 1.8 µL/min/1e6 cells	> 100 µM	> 300 µM	5	2	4	1.7					
Cc1nn2cc(C(=O)NCC3CC3)ccc2c1[C@H]1CCN(CC2(O)CCOCC2)C[C@@H]1C	0.043 µM	1.54 nm/s	< 1.8 µL/min/1e6 cells	7.38 µM	269 µM	133	16	106	2					
CCNC(=O)c1ccc2c(C3CCN(CC4(O)CCCCC4)CC3)c(C)nn2c1	0.056 µM	2.46 nm/s	3.2 µL/min/1e6 cells	4.64 µM	> 300 µM	20	16	23	2					
CCNC(=O)c1ccc2c(c1)nc(C)n2C1CCN(CC2(O)CCCCC2)CC1	0.141 µM	1.08 nm/s	2.4 µL/min/1e6 cells	28.9 µM	> 300 µM	19	11	16	1.9					
CCNC(=O)c1ccc2c(c1)nc(C)n2[C@H]1CCN(CC2(O)CCCCC2)C[C@@H]1C	0.063 µM	1.19 nm/s	5.9 µL/min/1e6 cells	22.3 µM	> 300 µM	16	17	12	2.4	0.29 µM	> 0.1 µM	0.53 µM	0.08 µM	
CCNC(=O)c1ccc2c(C3CCN(CC4(O)CCCCC4)CC3)c(-c3cccn(C)c3=O)nn2c1	0.069 µM	0.06 nm/s	< 1.8 µL/min/1e6 cells	36.1 µM	> 300 µM	19	4	15	0.09					
COC1(CN2CC[C@H](c3c(C)nn4cc(C(=O)NCC5CC5)ccc34)[C@@H](C)C2)CCOCC1	0.057 µM	2.48 nm/s	16.4 µL/min/1e6 cells	16.6 µM	> 300 µM	213	49	160	2.8					
CCNC(=O)c1ccc2c(c1)[nH]c(=O)n2C1CCN(CC2(O)CCCCC2)CC1	0.284 µM	0.21 nm/s	3.2 µL/min/1e6 cells	40.2 µM	> 300 µM	8	14	7	1.7					
CCNC(=O)c1ccc2c([C@H]3CCN(CC4(O)CCOCC4)C[C@@H]3C)c(C)nn2c1	0.037 µM	0.93 nm/s	< 1.8 µL/min/1e6 cells	66.6 µM	> 300 µM	35	15	27	1.6	0.3 µM	> 0.05 µM		0.03 µM	deltaH [14]: 55.6 kJ/mol; deltaH [15]: -11.1 cal/mol.K
CCNC(=O)c1ccc2c(C3CCN(CC4(O)C5CC6CC(C5)CC4C6)CC3)c(C)nn2c1 (configuration not stated)	0.021 µM	3.31 nm/s	33.7 µL/min/1e6 cells	3.43 µM	123 µM	19	7	25	3.2		0.022 µM	0.103 µM	0.053 µM	IC50 ([10]; hek293t): 0.2 µM
CCNC(=O)c1ccc2c(c1)nc(C(F)F)n2[C@H]1CCN(CC2(O)CCCCC2)C[C@@H]1C	0.059 µM	2.71 nm/s	12.8 µL/min/1e6 cells	35.4 µM	> 300 µM	19	17	14	3.1	0.73 µM	> 0.05 µM	0.297 µM	0.045 µM	Vd [20]: 2.6 L/kg; Vd [21]: 7.8 L/kg; half-life [22]: 1.4 h; half-life [23]: 4.9 h; half-life [16]: 1.2 h; Cmax [24]: 0.487 µg/mL; Cmax [25]: 1 µg/mL; Cmax [17]: 14 µg/mL; AUC [26]: 1150 ng·min/mL; AUC [27]: 2150 ng·min/mL; AUC [18]: 0.675 µg·h/mL; Tmax [28]: 0.4 h; Tmax [29]: 0.3 h; Tmax [19]: 0.8 h; F [30]: 46%; F [31]: 68%

Reference: ChEMBL document CHEMBL5316283, “Discovery of High-Affinity Small-Molecule Binders of the Epigenetic Reader YEATS4” (J Med Chem, 2023)
